# Reference: patent US7358250B2, “Pyrrolo[2,3-d]pyrimidines that modulate ACK1 activity” (Amgen Inc., priority 2004, dated 2008)
# Key:
# ACK1 = biological target: T1, ACK1 (Homo sapiens, UniProt Q07912); experiment: ACK1 Enzymatic Assay; format: biochemical; details: 5 μM ATP, ELISA phosphotyrosine readout
# T1 construct: a fusion of an N-terminal (His)6 Tag with amino acids 117 to 489 of ACK1; (His)6 (N); made in house; host or cells: baculovirus infected Hi-5 insect cells
# Description: IC50 values of inventive compounds may be assessed as follows. […] The substrate of for the reaction is ACK1 itself (autophosphorylation) and poly-Glutamic acid-Tyrosine (PGT (4:1), Sigma catalog #PO275). The PGT is coated to Nunc 96 well plates at 80 μg/mL overnight at 4° C. […] Test compounds are added in 10 μL DMSO, and the reaction is started by addition of 10 μL kinase in assay buffer. The reaction proceeds 2 h at room temperature. Next the plates are washed four times, and the level of tyrosine phosphorylation in a given well is quantified by standard ELISA assay utilizing a phosphotyrosine antibody (PY20, Pierce).
# C8 cells = experiment: ACK1 Cell Based Assay, test (C8) cell line; details: 0.125% FCS, 20 to 24 h, cell viability (Cytotox One kit)
# Description: The ACK1 cell based assay is designed to find inhibitors of ACK1 kinase activity which would be prime candidates for the development of anticancer drugs. […] This dependency was confirmed utilizing ACK1 specific siRNAs.
# For this assay, test (C8) and control (HeLa) cell lines are seeded in 96 well tissue culture plates (BD Falcon) at a density of 2 to 4×10^4 in DMEM/F12 (C8) or DMEM (HeLa) with 0.125% FCS in the presence of ACK1 inhibitors (final DMSO concentration is 0.5%, all tissue culture media are from Cellgro). After 20 to 24 h incubation at 37° C. and 5% CO2, cell viability is determined using the Cytotox One kit (Promega) according to the manufacturer's instructions.
# LCK = biological target: T2, LCK (Homo sapiens, UniProt P06239); experiment: LCK-Homogeneous Time Resolved Fluorescent (HTRF) Kinase Assay; format: biochemical; details: LCK KD GST (225-509)
# T2 construct: 15 μL of LCK KD GST (225-509) for a final volume of 40 μL; GST
# T2 sequence (P06239 225-509): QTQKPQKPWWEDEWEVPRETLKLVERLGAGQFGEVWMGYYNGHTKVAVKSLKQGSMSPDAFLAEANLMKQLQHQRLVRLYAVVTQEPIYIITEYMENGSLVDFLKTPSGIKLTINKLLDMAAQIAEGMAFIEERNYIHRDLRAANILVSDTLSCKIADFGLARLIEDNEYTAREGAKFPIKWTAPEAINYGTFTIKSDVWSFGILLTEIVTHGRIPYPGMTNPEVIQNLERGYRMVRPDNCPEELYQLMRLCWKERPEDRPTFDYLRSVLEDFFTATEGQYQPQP
# Description: The LCK HTRF assay begins with LCK in the presence of ATP phosphorylating the biotinylated peptide Gastrin. The reaction incubates for 90 min. To quench the assay detection reagents are added which both stop the reaction by diluting out the enzyme and chelating the metals due to the presence of EDTA. Once the detection reagents are added the assay incubates for 30 min to allow for equilibration of the detection reagents.
# The final concentration of gastrin is 1.2 μM. The final concentration of ATP is 0.5 μM (Km app=[…]) and the final concentration of LCK is […]. Buffer conditions are as follows: 50 mM HEPES pH 7.5, 50 mM NaCl, 20 mM MgCl, 5 mM MnCl, 2 mM DTT, 0.05% BSA.
# The assay is quenched and stopped with 160 μL of detection reagent. Detection reagents are as follows: Buffer made of 50 mM Tris, pH 7.5, 100 mM NaCl, 3 mM EDTA, 0.05% BSA, 0.1% Tween20. Added to this buffer prior to reading is Steptavidin allophycocyanin (SA-APC) at a final conc in the assay of 0.0004 mg/mL, and europilated anti-phosphotyrosine Ab (Eu-anti-PY) at a final conc of 0.025 nM.
# The assay plate is read in either a Discovery or a RubyStar. The eu-anti-PY is excited at 320 nm and emits at 615 nm to excite the SA-APC which in turn emits at 655 nm. The ratio of SA-APC at 655 nm (excited due to close proximity to the Eu-anti-PY because of phosphorylation of the peptide) to free Eu-anti-PY at 615 nm will give substrate phosphorylation.
# T1 sequence (Q07912 117-489): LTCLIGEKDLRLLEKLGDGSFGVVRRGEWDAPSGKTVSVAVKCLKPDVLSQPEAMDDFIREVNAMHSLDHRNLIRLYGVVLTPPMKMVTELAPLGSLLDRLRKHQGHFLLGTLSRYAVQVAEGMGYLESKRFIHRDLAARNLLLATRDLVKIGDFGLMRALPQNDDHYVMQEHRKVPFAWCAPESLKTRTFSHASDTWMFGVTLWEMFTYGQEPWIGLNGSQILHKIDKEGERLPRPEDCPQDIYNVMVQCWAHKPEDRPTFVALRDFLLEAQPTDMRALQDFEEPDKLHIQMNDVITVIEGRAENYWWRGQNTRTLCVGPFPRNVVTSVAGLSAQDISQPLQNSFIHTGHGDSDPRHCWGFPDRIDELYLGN
SMILES,Ki (ACK1),Ki (LCK),IC50 (C8 cells)
"CO[C@@H]1CC[C@H]1CNc1ncnc2[nH]c(-c3ccc(OCCN(C)C)cc3)c(-c3ccccc3)c12 (mixture of isomers) [Example 35, trans/cis-{6-[4-(2-Dimethylamino-ethoxy)-phenyl]-5-phenyl-7H-pyrrolo[2,3-d]pyrimidin-4-yl}-(2-methoxy-cyclobutylmethyl)-amine]",10 to 100 nM,< 10 nM,> 100 nM
"CN(C)CCOc1ccc(-c2[nH]c3ncnc(NC[C@@H]4CC[C@H]4O)c3c2-c2ccccc2)cc1 (mixture of isomers) [Example 36, trans/cis-2-({6-[4-(2-Dimethylamino-ethoxy)-phenyl]-5-phenyl-7H-pyrrolo[2,3-d]pyrimidin-4-ylamino}-methyl)-cyclobutanol]",10 to 100 nM,,> 100 nM
"CN(C)CCOc1ccc(-c2[nH]c3ncnc(NC[C@H]4CCC[C@H]4O)c3c2-c2ccccc2)cc1 (relative stereo) [Example 37, cis-2-({6-[4-(2-Dimethylamino-ethoxy)-phenyl]-5-phenyl-7H-pyrrolo[2,3-d]pyrimidin-4-ylamino}-methyl)-cyclopentanol]",,< 10 nM,> 100 nM
"CN(C)CCOc1ccc(-c2[nH]c3ncnc(NC[C@H]4CCC[C@H]4N)c3c2-c2ccccc2)cc1 (relative stereo) [Example 38, cis-(2-Amino-cyclopentylmethyl)-{6-[4-(2-dimethylamino-ethoxy)-phenyl]-5-phenyl-7H-pyrrolo[2,3-d]pyrimidin-4-yl}-amine]",> 100 nM,10 to 100 nM,> 100 nM
"CN(C)CCOc1ccc(-c2[nH]c3ncnc(NC[C@H]4CCC[C@H]4NS(C)(=O)=O)c3c2-c2ccccc2)cc1 (relative stereo) [Example 39, cis-N-[2-({6-[4-(2-Dimethylamino-ethoxy)-phenyl]-5-phenyl-7H-pyrrolo[2,3-d]pyrimidin-4-ylamino}-methyl)-cyclopentyl]-methanesulfonamide]",> 100 nM,< 10 nM,> 100 nM
"CN(C)CCOc1ccc(-c2[nH]c3ncnc(NC[C@@H]4CCC[C@H]4N)c3c2-c2ccccc2)cc1 (relative stereo) [Example 40, trans-(2-Amino-cyclopentylmethyl)-{6-[4-(2-dimethylamino-ethoxy)-phenyl]-5-phenyl-7H-pyrrolo[2,3-d]pyrimidin-4-yl}-amine]",> 100 nM,< 10 nM,> 100 nM
"CN(C)CCOc1ccc(-c2[nH]c3ncnc(NC[C@@H]4CCC[C@H]4NS(C)(=O)=O)c3c2-c2ccccc2)cc1 (relative stereo) [Example 41, trans-N-[2-({6-[4-(2-Dimethylamino-ethoxy)-phenyl]-5-phenyl-7H-pyrrolo[2,3-d]pyrimidin-4-ylamino}-methyl)-cyclopentyl]-methanesulfonamide]",10 to 100 nM,< 10 nM,> 100 nM
"c1ccc(-c2[nH]c3ncnc(NCCN4CCOCC4)c3c2-c2ccccc2)cc1 [Example 1, (5,6-Diphenyl-7H-pyrrolo[2,3-d]pyrimidin-4-yl)-(2-morpholin-4-ylethyl)-amine]",10 to 100 nM,10 to 100 nM,> 100 nM
"c1ccc(-c2[nH]c3ncnc(NCC4CCCO4)c3c2-c2ccccc2)cc1 (stereo not drawn) [Example 2, (5,6-Diphenyl-7H-pyrrolo[2,3-d]pyrimidin-4-yl)-(tetrahydrofuran-2-ylmethyl)-amine]",< 10 nM,< 10 nM,> 100 nM
"c1ccc(-c2[nH]c3ncnc(NCC4CCCS4)c3c2-c2ccccc2)cc1 (stereo not drawn) [Example 3, (5,6-Diphenyl-7H-pyrrolo[2,3-d]pyrimidin-4-yl)-(tetrahydrothiophen-2-ylmethyl)-amine]",10 to 100 nM,< 10 nM,> 100 nM
"c1ccc(-c2[nH]c3ncnc(NCC4CCCCO4)c3c2-c2ccccc2)cc1 (stereo not drawn) [Example 4, (5,6-Diphenyl-7H-pyrrolo[2,3-d]pyrimidin-4-yl)-(tetrahydropyran-2-ylmethyl) amine]",10 to 100 nM,< 10 nM,> 100 nM
"COCCN(CCOC)S(=O)(=O)c1ccc(-c2[nH]c3ncnc(NCC4CCCO4)c3c2-c2ccccc2)cc1 (stereo not drawn) [Example 8, N,N-Bis-(2-methoxyethyl)-4-{5-phenyl-4-[(tetrahydrofuran-2-ylmethyl)-amino]-7H-pyrrolo[2,3-d]pyrimidin-6-yl}-benzenesulfonamide]",< 10 nM,< 10 nM,> 100 nM
"O=S(=O)(c1ccc(-c2[nH]c3ncnc(NCC4CCCO4)c3c2-c2ccccc2)cc1)N1CCOCC1 (stereo not drawn) [Example 10, {6-[4-(Morpholin-4-sulfonyl)-phenyl]-5-phenyl-7H-pyrrolo[2,3-d]pyrimidin-4-yl}-(tetrahydrofuran-2-ylmethyl)-amine]",< 10 nM,< 10 nM,> 100 nM
"O=S(=O)(NCCN1CCOCC1)c1ccc(-c2[nH]c3ncnc(NCC4CCCO4)c3c2-c2ccccc2)cc1 (stereo not drawn) [Example 11, N-(2-Morpholin-4-yl-ethyl)-4-{5-phenyl-4-[(tetrahydrofuran-2-ylmethyl)-amino]-7H-pyrrolo[2,3-d]pyrimidin-6-yl}-benzenesulfonamide]",< 10 nM,< 10 nM,10 to 100 nM
"CN(C)CCOc1ccc(-c2[nH]c3ncnc(NCC4SCCS4)c3c2-c2ccccc2)cc1 [Example 33, {6-[4-(2-Dimethylaminoethoxy)-phenyl]-5-phenyl-7H-pyrrolo[2,3-d]pyrimidin-4-yl}-[1,3]dithiolan-2-ylmethyl-amine]",,< 10 nM,< 10 nM

# Further lines, with some results ahead:
Ki (ACK1),Ki (LCK),SMILES,IC50 (C8 cells)
< 10 nM,< 10 nM,"CN(C)S(=O)(=O)c1ccc(-c2[nH]c3ncnc(NC[C@@H]4CCCO4)c3c2-c2ccccc2)cc1 [Example 5, N,N-Dimethyl-4-{5-phenyl-4-[(tetrahydro-furan-2-ylmethyl)-amino]-7H-pyrrolo[2,3-d]pyrimidin-6-yl}-benzenesulfonamide]",10 to 100 nM
< 10 nM,< 10 nM,"CNS(=O)(=O)c1ccc(-c2[nH]c3ncnc(NCC4CCCO4)c3c2-c2ccccc2)cc1 (stereo not drawn) [Example 6, N-Methyl-4-{5-phenyl-4-[(tetrahydrofuran-2-ylmethyl)-amino]-7H-pyrrolo[2,3-d]pyrimidin-6-yl}-benzenesulfonamide]",10 to 100 nM
< 10 nM,< 10 nM,"CCN(CC)S(=O)(=O)c1ccc(-c2[nH]c3ncnc(NCC4CCCO4)c3c2-c2ccccc2)cc1 (stereo not drawn) [Example 7, N,N-Diethyl-4-{5-phenyl-4-[(tetrahydrofuran-2-ylmethyl)-amino]-7H-pyrrolo[2,3-d]pyrimidin-6-yl}-benzenesulfonamide]",> 100 nM
< 10 nM,< 10 nM,"COCCNS(=O)(=O)c1ccc(-c2[nH]c3ncnc(NCC4CCCO4)c3c2-c2ccccc2)cc1 (stereo not drawn) [Example 9, N-(2-Methoxyethyl)-4-{5-phenyl-4-[(tetrahydrofuran-2-ylmethyl)-amino]-7H-pyrrolo[2,3-d]pyrimidin-6-yl}-benzenesulfonamide]",10 to 100 nM
< 10 nM,< 10 nM,"C=CCNS(=O)(=O)c1ccc(-c2[nH]c3ncnc(NCC4CCCO4)c3c2-c2ccccc2)cc1 (stereo not drawn) [Example 12, N-Allyl-4-{5-phenyl-4-[(tetrahydro-furan-2-ylmethyl)-amino]-7H-pyrrolo[2,3-d]pyrimidin-6-yl}-benzenesulfonamide]",> 100 nM
10 to 100 nM,10 to 100 nM,"CC(C)(C)OC(=O)CNS(=O)(=O)c1ccc(-c2[nH]c3ncnc(NCC4CCCO4)c3c2-c2ccccc2)cc1 (stereo not drawn) [Example 13, (4-{5-Phenyl-4-[(tetrahydrofuran-2-ylmethyl)-amino]-7H-pyrrolo[2,3-d]pyrimidin-6-yl}-benzenesulfonylamino)-acetic acid tert-butyl ester]",> 100 nM
